Consider one molecule from US20130287918A1, “MICROBICIDAL COMPOSITION” (DUPONT NUTRITION DIOSCIENCES APS, priority 2010, published 2013).

Structures are written as SMILES.

The subject of assay [1] is pool of 4 mould species (Penicillium sp DCS 1380, Aspergillus versicolor DCS 1069, Aspergillus parasiticus DCS 709, Mucor sp DCS 1140). The assay is described as follows: Salsa sauce fresh challenge study, mould growth. The note with it: Salsa sauce 4° C.; blends 1%. It counts as cell-based. The procedure: Each batch was split (scheme table 15) in probes of 90 gram and placed in sterile jars. 21 probes of each batch were inoculated with the desired level of yeast and 5 probes of each batch were inoculated with mould spores, respectively at a targeted inoculation rate of 300 to 800 CFU/g.
(§1) The viscous products were thoroughly mixed (2 minutes) within 10 minutes of inoculation to ensure that the inoculum was evenly distributed throughout the product. One sample remained un-inoculated and was used as negative control to monitor the native contamination flora. All samples were incubated in the dark at chilled temperature (4° C.) and assayed for yeast, plated on an appropriate yeast medium, until confirmed failure (≧1.0E+06 CFU/g) or until visible mould growth, respectively. In parallel, the growth of lactic acid bacteria and total cell count were monitored on MRS and PCA in all the batches and the non-inoculated blind, respectively.
Mould spores were prepared as follows: approx. 2 ml of sterile demineralised water was used to wash the spores off an out-grown mould cultivar (minimum 5 day old plate). This suspension is transferred to a sterile container. Pool counts were verified via plate count.
5 samples from each batch inoculated with mould were visually analysed for mould growth.

In a further assay the test system is pool of 4 yeast species. The assay is described as follows: Ranch dressing challenge study, yeast count on YGC agar. It counts as cell-based. As to conditions: for Cell counts on YGC-agar to determine the yeast growth: 0.1% in Ranch dressing, inoculation 500 CFU/g, 20° C.
Excerpt: Samples of the regular ranch dressing (formula in table 24) with and without the experimental blend were produced in the Danisco Culinary Application Laboratory, Brabrand.
Each batch was split (scheme table 23) in probes of 90 gram and placed in sterile jars. 36 probes of each batch were inoculated with the desired level of yeast and 5 probes of each batch were inoculated with mould spores, respectively at a targeted inoculation rate of 500 to 1000 CFU/g.
as §1, with “incubated” for “incubated in the dark”, “ambient” for “chilled”, “(20°” for “(4°”, “(≧1.0E+05” for “(≧1.0E+06”
In total 8 strains, from Danisco's in-house Culture Collection (DCS) (Danisco A/S, Brabrand, Denmark) were employed as 1 yeast and 1 mould pool in the respective Ranch dressing. Originally, they were isolated e.g. from spoiled ketchup, mayonnaise, Salsa dressing or obtained from official culture collections such as DMSZ.
Before each experiment, a stock culture of each yeast, maintained at −86° C. in suitable broth containing glycerol 50% (v/v), was propagated through two consecutive growth cycles in suitable media (YGC-agar (VWR) pH 5.1+0.2; YM Broth (Becton, Dickinson and company) at pH 6.0±0.2 at and temperature (25° C.). The overnight cultures are diluted in saline solution to obtain working cultures. A cocktail of the yeasts was generated by adding equal cell counts of each culture into a sterile container and mixed appropriately. The yeast cocktail was diluted and inoculated into the product in order to achieve the final desired concentration. Pool counts were verified via plate count. Mould spores were prepared as follows: approx. 2 ml of sterile demineralised water was used to wash the spores off an out-grown mould cultivar (minimum 5 day old plate). This suspension is transferred to a sterile container. Pool counts were verified via plate count.
The Ranch dressing was assayed a time zero, day 3, day 7, day 14, bi-weekly thereafter until week 13 (day 90) and every 4 to 6 weeks until week 29. CFU/g was detected for 3 samples from each batch inoculated with yeast. Before each sampling (closed jar), the sample was thoroughly mixed. 10 gram sample were aseptically pulled from each jar and diluted with peptone water. Each sample was stomached (1 min, normal setting) plated in duplicate onto YGC agar (VWR), PC agar and MRS agar (VWR), and incubated at 25° C. for 5 and 7 days and 37° C. for 3 days, respectively.

As for `C/C=C/C=C/C(=O)[O-].[K+]` [Potassium Sorbate, potassium sorbate], the “control of mould outgrowth (plate count in yeast inoculated samples)” value in assay [1] amounted to 12 weeks. For the same molecule, the “initial reduction of the inoculated cell load” value in the assay on pool of 4 yeast species (Ranch dressing 20° C., FP1000 D1/D2 1%, MicroGARD 200 1%, potassium sorbate 0.1%) came to 2 log. The “Cell counts on YGC-agar to determine the yeast growth” value in the assay on pool of 4 yeast species (day 0) was 3.20E+02 CFU/g; in the assay with pool of 4 yeast species (day 3), 1.70E+02 CFU/g; in the assay with pool of 4 yeast species (day 7) it was 7.50E+01 CFU/g; in the assay with pool of 4 yeast species (day 14), 1.00E+01 CFU/g; with pool of 4 yeast species (day 28), 1.00E+01 CFU/g; in the assay on pool of 4 yeast species (day 42), 1.00E+01 CFU/g. For the same molecule, the “Cell counts on YGC-agar to determine the yeast growth” value with pool of 4 yeast species (day 56), in the assay on pool of 4 yeast species (day 64), in the assay on pool of 4 yeast species (day 90), in the assay with pool of 4 yeast species (day 157) and in the assay with pool of 4 yeast species (day 198) was 1.00E+01 CFU/g in each case.
